Measurements: patent publication US20250188030A1, “Biphenyl and Phenylpyridine Compounds” (Pfizer Inc., priority 2023, published 2025)
Read-outs that look alike come from different tables or passages of the source.

Assays:
[1] = tested on: MM.1S cells; assay: MM1.S 10 Day Proliferation Assay (CellTiter-Glo); format: cell-based, Human
Experimental: Human B lymphoblast cell line MM.1S was obtained from American Type Culture Collection (ATCC), Manassas, VA USA, Cat. MM.1S (ATCC® CRL-2974™). Cells were cultured in RPMI (Thermo Fisher Scientific/Gibco Life Technologies Cat. #111875-093) plus 10% (v/v) FBS (Thermo Fisher Scientific/Gibco Life Technologies Cat. #26140-079) and 1% Penicillin-Streptomycin (Thermo Fisher Scientific/Gibco Life Technologies Cat. #15070063) at 37° C. in 5% CO2.
MM1.S cells were trypsinized cell viability count performed, and cells suspended in complete media at 5,556 cells/ml. Cells were then seeded (90 μl/well) into a 96-well round black/clear bottom, ULA (Ultra-Low Attachment surface plate (Corning cat #4520) at a density of 500 cells/well. Cells were then incubated for 16 hours at 37° C. and 5% CO2. Compound dilution plates were prepared in 96-well, clear U-bottom, polypropylene plates (Corning 3365) in 100% DMSO at 10 mM stock concentration in duplicate wells, using a 10-point serial dilution (1:3 dilutions). Compounds were diluted to 1:100 in growth medium. Then 10 μl of diluted compounds were added to each well of the cell plates using a Beckman FX liquid handling system such that the highest compound concentration tested was 10 μM final, with a 0.1% final DMSO concentration in the total volume of 100 μl. Plates were incubated for 10 total days at 37° C. and 5% CO2. Fresh media containing compound was refreshed at 5 days treatment.
Finally, the treatment plates were removed from the incubator and 100 μl of CellTiter-Glo Luminescent reagent was added to each well, and plates were equilibrated in the dark for 30 minutes. Plates were read on the PHERAstar plate reader using the 96-well with Luminescent reading mode. IC50 values were calculated using a four-parameter fit with GraphPad Prism version 9.5.1 or in house modified IDBS ActivityBase data analyzing package.

[2] = target: KAT2A (Homo sapiens (Human), UniProt Q92830); assay: KAT2A acetyltransferase biochemical assay (RapidFire mass spectrometry, AcCoA to CoA)
[3] = tested on: H3K9AC (HT1080 cells); assay: H3K9AC Sandwich ELISA Assay in HT1080 cells (KAT2A primary cell-based screening assay); parameters: species or system Human
Outline: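 Acetylated H3K9 quantified by luminescent sandwich ELISA (total H3 capture, H3K9ac detection) on HCl lysates of HT1080 cells. Cells had 24 h compound exposure at 37 °C, top concentration 10 µM, 10-point 3-fold series, 0.1% DMSO; IC50 from four-parameter fitting.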

[4] = read-out: KAT2A Ki at 1 μM AcCoA, 5 μM H3 1-21 peptide, 0.5 nM KAT2A, 90-minute reaction
[5] = Homo sapiens, HT-1080, H3K9AC sandwich ELISA
[6] = KAT2A Ki at 1 μM AcCoA, 5 μM H3 1-21 peptide, 0.5 nM KAT2A, 90-minute reaction

Sequence of KAT2A (Q92830 whole entry): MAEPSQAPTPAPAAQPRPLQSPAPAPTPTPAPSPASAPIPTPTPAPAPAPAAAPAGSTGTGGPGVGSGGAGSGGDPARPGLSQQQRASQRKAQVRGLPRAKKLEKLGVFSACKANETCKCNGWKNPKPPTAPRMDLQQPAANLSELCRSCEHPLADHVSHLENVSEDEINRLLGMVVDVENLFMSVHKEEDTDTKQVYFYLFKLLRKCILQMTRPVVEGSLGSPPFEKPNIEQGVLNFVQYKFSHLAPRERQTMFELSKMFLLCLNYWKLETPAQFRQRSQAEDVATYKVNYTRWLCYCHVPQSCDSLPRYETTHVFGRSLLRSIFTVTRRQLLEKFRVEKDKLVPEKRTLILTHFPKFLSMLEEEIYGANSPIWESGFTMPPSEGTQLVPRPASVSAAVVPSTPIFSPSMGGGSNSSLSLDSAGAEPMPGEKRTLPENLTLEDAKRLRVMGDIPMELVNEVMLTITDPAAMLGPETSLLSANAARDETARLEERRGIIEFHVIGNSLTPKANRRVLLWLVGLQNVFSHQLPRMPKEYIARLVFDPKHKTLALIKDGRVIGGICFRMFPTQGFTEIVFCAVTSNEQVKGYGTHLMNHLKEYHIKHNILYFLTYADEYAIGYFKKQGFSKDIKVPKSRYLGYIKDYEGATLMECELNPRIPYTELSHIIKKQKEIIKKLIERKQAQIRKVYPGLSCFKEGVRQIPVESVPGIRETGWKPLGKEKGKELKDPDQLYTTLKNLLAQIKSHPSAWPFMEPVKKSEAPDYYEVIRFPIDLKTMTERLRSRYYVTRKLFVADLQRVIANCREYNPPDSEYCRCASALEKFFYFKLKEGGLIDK

IC50 ([1]; Homo sapiens, MM1.S, 240 h) | Ki [2, 4] | IC50 [3, 5] | IC50 ([3]; H3K9AC sandwich ELISA) | IC50 [1] | Ki [2, 6] | SMILES
125 nM | 12.9 nM | 41.5 nM | – | – | – | CN1CC(C)(C)C[C@H]1C(=O)N[C@H]1C[C@H](COc2ccc(CC(=O)O)cc2-c2cccc(F)c2C2CCC2)C1 [Example F1, [2′-cyclobutyl-3′-fluoro-6-({(1S,3r)-3-[(1,4,4-trimethyl-L-prolyl)amino]cyclobutyl}methoxy)[1,1′-biphenyl]-3-yl]acetic acid]
4.2 nM | 0.06 nM | 2.8 nM | – | – | – | CC(C)c1c(F)cccc1-c1cc(C(C)(C)C(=O)NS(=O)(=O)C2(C)CC2)ccc1O[C@@H]1CC[C@@H](NC(=O)[C@@]2(F)CNC3(CCC3)C2)C1 (single isomer, unassigned) [Example C43]
147 nM | 4.12 nM | 76.4 nM | – | – | – | CC1(C)C[C@](F)(C(=O)N[C@@H]2CC[C@@H](Oc3ccc(C(C)(C)C(=O)O)cc3-c3cccc(F)c3C3CCC3)C2)CN1 (single isomer, unassigned) [Example A4]
102 nM | 3.78 nM | 20.9 nM | – | – | – | CN1C[C@](F)(C(=O)N[C@@H]2CC[C@@H](Oc3ccc(C(C)(C)C(=O)NS(C)(=O)=O)cc3-c3cccc(F)c3C3CCC3)C2)CC1(C)C (single isomer, unassigned) [Example B7]
417 nM | 10.8 nM | 45 nM | – | – | – | C[C@@H](C(=O)O)c1ccc(O[C@@H]2CC[C@@H](NC(=O)[C@@H]3CC(C)(C)CN3C)C2)c(-c2cccc(F)c2C2CCC2)c1 (single isomer, unassigned) [Example D13]
385 nM | 42.8 nM | 112 nM | – | – | – | CC(C)c1ccccc1-c1c(CC(=O)O)cccc1O[C@@H]1CC[C@@H](NC(=O)[C@@H]2CC(C)(C)CN2C)C1 (atropisomer, axis not shown) [Example H4, [(1ψ)-2′-(propan-2-yl)-6-({(1R,3R)-3-[(1,4,4-trimethyl-L-prolyl)amino]cyclopentyl}oxy)[1,1′-biphenyl]-2-yl]acetic acid]
26 nM | 0.68 nM | – | 4.22 nM | – | – | O=C(O)Cc1ccc(O[C@@H]2CC[C@@H](NC(=O)[C@@]3(F)CNC4(CCCC4)C3)C2)c(-c2cccc(F)c2C2CCC2)c1 (single isomer, unassigned) [Example A25]
2.5 nM | 0.11 nM | 0.8 nM | – | – | – | CC(C)c1ccccc1-c1cc(CC(=O)NS(=O)(=O)C(C)C)ccc1O[C@@H]1CC[C@@H](NC(=O)[C@@]2(F)CNC3(CCC3)C2)C1 [Example C55, (7S)-7-fluoro-N-[(1R,3R)-3-({5-[2-oxo-2-(propane-2-sulfonamido)ethyl]-2′-(propan-2-yl)[1,1′-biphenyl]-2-yl}oxy)cyclopentyl]-5-azaspiro[3.4]octane-7-carboxamide]
– | 0.34 nM | – | 4.33 nM | 101 nM | – | CC(C)c1c(F)cccc1-c1cc(C(C)(C)C(=O)O)ccc1O[C@@H]1CC[C@@H](NC(=O)[C@@]2(F)CNC3(CCC3)C2)C1 (single isomer, unassigned) [Example A22]
7.6 nM | 0.05 nM | – | 4.1 nM | – | – | CCc1c(F)cccc1-c1cc(CC(=O)NS(=O)(=O)C2(C)CC2)ccc1O[C@@H]1CC[C@@H](NC(=O)[C@@]2(F)CNCC(C)(C)C2)C1 (single isomer, unassigned) [Example C57]
1.3 nM | 0.04 nM | 0.6 nM | – | – | – | CC1(S(=O)(=O)NC(=O)Cc2ccc(O[C@@H]3CC[C@@H](NC(=O)[C@@]4(F)CNC5(CCC5)C4)C3)c(-c3cccc(F)c3C3CCC3)c2)CC1 [Example B35, (7ξ)-N-[(1R,3R)-3-({2′-cyclobutyl-3′-fluoro-5-[2-(1-methylcyclopropane-1-sulfonamido)-2-oxoethyl][1,1′-biphenyl]-2-yl}oxy)cyclopentyl]-7-fluoro-5-azaspiro[3.4]octane-7-carboxamide]
1.4 nM | 0.04 nM | – | 2.1 nM | – | – | CCS(=O)(=O)NC(=O)C(C)(C)c1ccc(O[C@@H]2CC[C@@H](NC(=O)[C@@]3(F)CNCC4(CCC4)C3)C2)c(-c2cccc(F)c2C2CCC2)c1 (single isomer, unassigned) [Example B31]
171 nM | 8.31 nM | 25.9 nM | – | – | – | C[C@H](C(=O)O)c1ccc(O[C@@H]2CC[C@@H](NC(=O)[C@@H]3CC(C)(C)CN3C)C2)c(-c2cccc(F)c2C2CCC2)c1 (single isomer, unassigned) [Example D14]
88.7 nM | 13.6 nM | 59 nM | – | – | – | CN1CC(C)(C)C[C@H]1C(=O)N[C@@H]1CC[C@@H](Oc2cccc(CC(=O)NS(N)(=O)=O)c2-c2ccccc2C2CCC2)C1 (atropisomer, axis not shown) [Example I5, N-[(1R,3R)-3-({(1ψ)-2′-cyclobutyl-6-[2-oxo-2-(sulfamoylamino)ethyl][1,1′-biphenyl]-2-yl}oxy)cyclopentyl]-1,4,4-trimethyl-L-prolinamide]
– | – | – | 3.89 nM | 6.32 nM | 0.21 nM | CC(C(=O)NS(C)(=O)=O)c1ccc(O[C@@H]2CC[C@@H](NC(=O)[C@@H]3CC(C)(C)CN3C)C2)c(-c2cccc(F)c2C2CCC2)c1 (single isomer, unassigned) [Example E9]
31.8 nM | 0.16 nM | 3.8 nM | – | – | – | CC(C)S(=O)(=O)NC(=O)C(C)(C)c1cnc(O[C@@H]2CC[C@@H](NC(=O)[C@@]3(F)CNC4(CCC4)C3)C2)c(-c2cccc(F)c2C2CCC2)c1 [Example C65, (7S)-N-[(1R,3R)-3-({3-(2-cyclobutyl-3-fluorophenyl)-5-[2-methyl-1-oxo-1-(propane-2-sulfonamido)propan-2-yl]pyridin-2-yl}oxy)cyclopentyl]-7-fluoro-5-azaspiro[3.4]octane-7-carboxamide]
62.9 nM | 2.16 nM | 7.4 nM | – | – | – | CCc1ccccc1-c1cc(C(C)(C)C(=O)NS(=O)(=O)C(C)C)ccc1O[C@@H]1CC[C@@H](NC(=O)[C@@]2(F)CNC3(CCC3)C2)C1 [Example C46, (7S)-N-[(1R,3R)-3-({2′-ethyl-5-[2-methyl-1-oxo-1-(propane-2-sulfonamido)propan-2-yl][1,1′-biphenyl]-2-yl}oxy)cyclopentyl]-7-fluoro-5-azaspiro[3.4]octane-7-carboxamide]
10.2 nM | – | 6.1 nM | – | – | 0.09 nM | CS(=O)(=O)NC(=O)Cc1ccc(O[C@@H]2CC[C@@H](NC(=O)[C@]3(F)CNC4(CCC4)C3)C2)c(-c2cccc(F)c2C2CCC2)c1 (single isomer, unassigned) [Example C38]
– | 1.83 nM | – | 49.1 nM | 553 nM | – | CCS(=O)(=O)NC(=O)C(C)(C)c1ccc(O[C@@H]2CC[C@@H](NC(=O)[C@@]3(F)CNC(C)(C)C3)C2)c(-c2cccc(F)c2C2CCC2)c1 (single isomer, unassigned) [Example B14]
11 nM | 0.06 nM | 3 nM | – | – | – | CC1(C)CNC[C@](F)(C(=O)N[C@@H]2CC[C@@H](Oc3ccc(C(C)(C)C(=O)NS(C)(=O)=O)cc3-c3cccc(F)c3C3CCC3)C2)C1 (single isomer, unassigned) [Example C37]
– | 2.53 nM | – | 9.3 nM | 186 nM | – | C[C@H](C(=O)O)c1ccc(O[C@@H]2CC[C@@H](NC(=O)[C@@]3(F)CNC4(CCC4)C3)C2)c(-c2cccc(F)c2C2CCC2)c1 (single isomer, unassigned) [Example A20]
359 nM | 6.29 nM | 63.8 nM | – | – | – | CN1CC2(CCCC2)C[C@H]1C(=O)N[C@@H]1CC[C@@H](Oc2cccc(C(=O)NS(C)(=O)=O)c2-c2cccc(F)c2C2CCC2)C1 (atropisomer, axis not shown) [Example I10, (3ξ)-N-[(1R,3R)-3-({(1ψ)-2′-cyclobutyl-3′-fluoro-6-[(methanesulfonyl)carbamoyl][1,1′-biphenyl]-2-yl}oxy)cyclopentyl]-2-methyl-2-azaspiro[4.4]nonane-3-carboxamide]
249 nM | 24.2 nM | – | 23.2 nM | – | – | CN1CC(C)(C)C[C@H]1C(=O)N[C@@H]1CC[C@@H](Oc2cccc(CC(=O)NS(C)(=O)=O)c2-c2ccccc2C2CCC2)C1 (atropisomer, axis not shown) [Example I4, N-[(1R,3R)-3-{[(1ψ)-2′-cyclobutyl-6-{2-[(methanesulfonyl)amino]-2-oxoethyl}[1,1′-biphenyl]-2-yl]oxy}cyclopentyl]-1,4,4-trimethyl-L-prolinamide]
